ChEMBL document CHEMBL5338775, “Discovery of a Novel Class of PROTACs as Potent and Selective Estrogen Receptor α Degraders to Overcome Endocrine-Resistant Breast Cancer In Vitro and In Vivo” (J Med Chem, 2023)
The source made the active and inactive calls. The rule behind the calls is not given here.

Columns and labels:
Estrogen receptor beta [1] = molecular target: T1, Estrogen receptor beta (Homo sapiens, UniProt Q92731); assay: Binding affinity to ERbeta (unknown origin) assessed as relative binding affinity incubated for 2 hrs by fluorescence polarization assay relative to estradiol
T1 sequence (Q92731 whole entry): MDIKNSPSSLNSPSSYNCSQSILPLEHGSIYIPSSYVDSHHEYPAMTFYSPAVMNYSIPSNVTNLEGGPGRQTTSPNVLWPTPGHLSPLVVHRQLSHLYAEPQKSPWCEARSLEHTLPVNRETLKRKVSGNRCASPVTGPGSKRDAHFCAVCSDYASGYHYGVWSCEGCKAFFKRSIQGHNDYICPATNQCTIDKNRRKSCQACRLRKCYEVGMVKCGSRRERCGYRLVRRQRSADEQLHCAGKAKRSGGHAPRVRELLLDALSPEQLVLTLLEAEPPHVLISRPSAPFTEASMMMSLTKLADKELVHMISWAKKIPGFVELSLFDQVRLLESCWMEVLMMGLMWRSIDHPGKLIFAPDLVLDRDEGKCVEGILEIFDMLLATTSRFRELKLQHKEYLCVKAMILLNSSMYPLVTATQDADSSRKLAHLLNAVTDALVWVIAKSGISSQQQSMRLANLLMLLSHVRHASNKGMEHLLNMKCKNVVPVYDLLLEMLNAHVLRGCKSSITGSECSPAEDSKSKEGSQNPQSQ

[2] = Selectivity ratio of relative binding affinity for ERalpha (unknown origin) to relative binding affinity to ERbeta (unknown origin)
[3] = Selectivity index, ratio of Ki for ERalpha (unknown origin) to Ki for ERbeta (unknown origin)
Estrogen receptor = molecular target: T2, Estrogen receptor (Homo sapiens, UniProt P03372)
T2 sequence (P03372 whole entry): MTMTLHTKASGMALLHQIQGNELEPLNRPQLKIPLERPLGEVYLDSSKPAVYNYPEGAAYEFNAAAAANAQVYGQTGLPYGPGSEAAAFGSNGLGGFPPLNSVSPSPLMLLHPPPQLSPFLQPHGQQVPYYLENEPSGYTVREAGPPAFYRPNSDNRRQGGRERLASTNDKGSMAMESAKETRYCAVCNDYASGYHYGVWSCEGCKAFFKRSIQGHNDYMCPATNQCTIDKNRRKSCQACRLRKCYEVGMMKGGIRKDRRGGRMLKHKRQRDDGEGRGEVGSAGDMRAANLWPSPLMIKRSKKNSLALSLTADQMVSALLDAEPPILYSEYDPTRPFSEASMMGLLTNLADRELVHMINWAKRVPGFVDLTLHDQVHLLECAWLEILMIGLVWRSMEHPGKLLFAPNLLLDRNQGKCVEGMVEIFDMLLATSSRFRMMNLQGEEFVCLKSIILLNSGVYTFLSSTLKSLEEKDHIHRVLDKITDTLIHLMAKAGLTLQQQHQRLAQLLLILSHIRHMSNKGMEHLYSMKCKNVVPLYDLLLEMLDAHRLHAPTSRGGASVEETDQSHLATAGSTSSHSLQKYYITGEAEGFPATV

Estrogen receptor beta [4] = molecular target: T1, Estrogen receptor beta
MCF7 = assay: cells; conditions: Homo sapiens, MCF7, 72 h
cells = conditions: Homo sapiens, Tamoxifen-resistant LCC2 cell, 72 h
T47D [5] = assay: cells; conditions: Homo sapiens, 72 h
T47D [6] = assay: cells; conditions: Homo sapiens, 72 h; remark: listed apart in the source
T47D [7] = assay: cells; conditions: Homo sapiens, 72 h; remark: listed apart in the source
MDA-MB-231 = assay: cells; conditions: Homo sapiens, MDA-MB-231, 72 h
in vitro = conditions: human, MCF-10A cells
[8] = molecular target: Protein cereblon/Estrogen receptor (Homo sapiens) (UniProt P03372+Q96SW2); assay: PROTAC activity at CRBN/wild type ERalpha in ER-positive human MCF7 cells assessed as induction of ERalpha degradation at 1 uM incubated for 12 hrs by Western blot analysis; assay type: cell-based
Sequence of Protein cereblon/Estrogen receptor (Homo sapiens) (Q96SW2 whole entry, looked up, one chain of several): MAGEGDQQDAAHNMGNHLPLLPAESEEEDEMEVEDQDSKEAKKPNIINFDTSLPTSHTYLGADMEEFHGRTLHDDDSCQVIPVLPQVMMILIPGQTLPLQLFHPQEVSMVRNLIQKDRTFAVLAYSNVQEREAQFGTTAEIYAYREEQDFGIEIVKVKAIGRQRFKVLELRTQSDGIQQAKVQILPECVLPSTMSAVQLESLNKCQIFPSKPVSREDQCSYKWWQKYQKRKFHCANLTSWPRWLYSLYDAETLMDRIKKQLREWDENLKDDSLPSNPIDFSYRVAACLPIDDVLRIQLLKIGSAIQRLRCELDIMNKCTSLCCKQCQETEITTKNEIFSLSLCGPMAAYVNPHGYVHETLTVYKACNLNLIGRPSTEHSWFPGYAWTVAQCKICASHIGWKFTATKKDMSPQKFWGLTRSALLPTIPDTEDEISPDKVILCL

Structure (SMILES): CCN(c1ccc(OCCCCCCCCCC(=O)N[C@H](C(=O)N2C[C@H](O)C[C@H]2C(=O)NCc2ccc(-c3scnc3C)cc2)C(C)(C)C)cc1)S(=O)(=O)C1CC2OC1C(c1ccc(O)cc1)=C2c1ccc(O)cc1 (some centres not stated)
- RBA (Estrogen receptor beta [1]): 0.08%
- Selectivity ratio [2]: 0.75
- Ratio Ki [3]: 2.9
- Ki (Estrogen receptor): 3.38 µM
- Ki (Estrogen receptor beta [4]): 9.83 µM
- IC50 (MCF7): > 10 µM
- IC50 (cells): > 30 µM
- IC50 (T47D [5]): > 30 µM
- IC50 (T47D [6]): > 30 µM
- IC50 (T47D [7]): > 30 µM
- IC50 (MDA-MB-231): > 100 µM
- IC50 at 72 h (in vitro): > 100 µM

Structure (SMILES): O=C(COc1cccc2c1C(=O)N(C1CCC(=O)NC1=O)C2=O)NCCCCCCOc1ccc(N(CC(F)(F)F)S(=O)(=O)C2CC3OC2C(c2ccc(O)cc2)=C3c2ccc(O)cc2)cc1 (configuration not stated)
- RBA (Estrogen receptor beta [1]): 0.1%
- Selectivity ratio [2]: 1.1
- Ratio Ki [3]: 4.26
- Activity [8]: Active
- Ki (Estrogen receptor): 1.85 µM
- Ki (Estrogen receptor beta [4]): 7.86 µM
- IC50 (MCF7): 11 µM
- IC50 (cells): > 30 µM
- IC50 (T47D [5]): 25.4 µM
- IC50 (T47D [6]): > 30 µM
- IC50 (T47D [7]): > 30 µM
- IC50 (MDA-MB-231): > 100 µM
- IC50 at 72 h (in vitro): > 100 µM

Structure (SMILES): CC/C(=C(\c1ccc(O)cc1)c1ccc(OCCN(C)C)cc1)c1ccccc1 [AFIMOXIFENE]
- IC50 (cells): 22.2 µM
- IC50 (T47D [5]): 1.95 µM
- IC50 (T47D [6]): 11.6 µM
- IC50 (T47D [7]): 9.89 µM

Structure (SMILES): O=C(COc1cccc2c1C(=O)N(C1CCC(=O)NC1=O)C2=O)NCCCCOc1ccc(N(CC(F)(F)F)S(=O)(=O)C2CC3OC2C(c2ccc(O)cc2)=C3c2ccc(O)cc2)cc1 (configuration not stated)
- RBA (Estrogen receptor beta [1]): 0.07%
- Selectivity ratio [2]: 0.86
- Ratio Ki [3]: 3.32
- Activity [8]: inactive
- Ki (Estrogen receptor): 3.38 µM
- Ki (Estrogen receptor beta [4]): 11.2 µM
- IC50 (MCF7): > 50 µM
- IC50 (cells): > 50 µM
- IC50 (T47D [5]): > 50 µM
- IC50 (T47D [6]): > 50 µM
- IC50 (T47D [7]): > 50 µM
- IC50 (MDA-MB-231): > 100 µM
- IC50 at 72 h (in vitro): > 100 µM

Structure (SMILES): O=C(COc1ccc(C2CCC(=O)NC2=O)cc1)NCCNC(=O)COc1ccc(N(CC(F)(F)F)S(=O)(=O)C2CC3OC2C(c2ccc(O)cc2)=C3c2ccc(O)cc2)cc1 (configuration not stated)
- RBA (Estrogen receptor beta [1]): 0.16%
- Selectivity ratio [2]: 1.31
- Ratio Ki [3]: 5.08
- Activity [8]: Active
- Ki (Estrogen receptor): 0.97 µM
- Ki (Estrogen receptor beta [4]): 4.91 µM
- IC50 (MCF7): 1.14 µM
- IC50 (cells): 21 µM
- IC50 (T47D [5]): 17.3 µM
- IC50 (T47D [6]): 19.7 µM
- IC50 (T47D [7]): 21.4 µM
- IC50 (MDA-MB-231): > 100 µM
- IC50 at 72 h (in vitro): 13.7 µM

Structure (SMILES): CCN(c1ccc(OCCCCCCC(=O)N[C@H](C(=O)N2C[C@H](O)C[C@H]2C(=O)N[C@@H](C)c2ccc(-c3scnc3C)cc2)C(C)(C)C)cc1)S(=O)(=O)C1CC2OC1C(c1ccc(O)cc1)=C2c1ccc(O)cc1 (some centres not stated)
- RBA (Estrogen receptor beta [1]): 0.07%
- Selectivity ratio [2]: 1.43
- Ratio Ki [3]: 5.53
- Ki (Estrogen receptor): 2.03 µM
- Ki (Estrogen receptor beta [4]): 11.2 µM
- IC50 (MCF7): 0.57 µM
- IC50 (cells): > 30 µM
- IC50 (T47D [5]): > 30 µM
- IC50 (T47D [6]): > 30 µM
- IC50 (T47D [7]): > 30 µM
- IC50 (MDA-MB-231): > 100 µM
- IC50 at 72 h (in vitro): > 100 µM

Structure (SMILES): O=C(COc1cccc2c1C(=O)N(C1CCC(=O)NC1=O)C2=O)NCCCCCCCCOc1ccc(N(CC(F)(F)F)S(=O)(=O)C2CC3OC2C(c2ccc(O)cc2)=C3c2ccc(O)cc2)cc1 (configuration not stated)
- RBA (Estrogen receptor beta [1]): 0.16%
- Selectivity ratio [2]: 0.88
- Ratio Ki [3]: 3.39
- Activity [8]: inactive
- Ki (Estrogen receptor): 1.45 µM
- Ki (Estrogen receptor beta [4]): 4.91 µM
- IC50 (MCF7): > 50 µM
- IC50 (cells): > 50 µM
- IC50 (T47D [5]): > 50 µM
- IC50 (T47D [6]): > 50 µM
- IC50 (T47D [7]): > 50 µM
- IC50 (MDA-MB-231): > 100 µM
- IC50 at 72 h (in vitro): > 100 µM

Structure (SMILES): CCN(c1ccc(OCCCCC(=O)N[C@H](C(=O)N2C[C@H](O)C[C@H]2C(=O)NCc2ccc(-c3scnc3C)cc2)C(C)(C)C)cc1)S(=O)(=O)C1CC2OC1C(c1ccc(O)cc1)=C2c1ccc(O)cc1 (some centres not stated)
- RBA (Estrogen receptor beta [1]): 0.13%
- Selectivity ratio [2]: 2.15
- Ratio Ki [3]: 8.34
- Ki (Estrogen receptor): 0.73 µM
- Ki (Estrogen receptor beta [4]): 6.05 µM
- IC50 (MCF7): 1.11 µM
- IC50 (cells): 15.2 µM
- IC50 (T47D [5]): 3.03 µM
- IC50 (T47D [6]): 4.58 µM
- IC50 (T47D [7]): 7.27 µM
- IC50 (MDA-MB-231): > 100 µM
- IC50 at 72 h (in vitro): 1.03 µM
